Reference: ChEMBL document CHEMBL3727350, “Agents and methods for treating ischemic and other diseases” (2014)
The source made the active and inactive calls. The rule behind the calls is not given here.

Assays:
[1] = target: Transient receptor potential cation channel subfamily M member 7 (Mus musculus) (UniProt Q923J1); experiment: Inhibition of Tet-induced Flag-tagged mouse TRPM7 expressed in HEK293 cells assessed as inhibition of channel-mediated cell death in presence of Mg2+ incubated for 24 to 48 hrs by propidium iodide uptake assay; assay type: cell-based; parameters: concentration or dose not given beside the values
Sequence of Transient receptor potential cation channel subfamily M member 7 (Mus musculus) (Q923J1 whole entry): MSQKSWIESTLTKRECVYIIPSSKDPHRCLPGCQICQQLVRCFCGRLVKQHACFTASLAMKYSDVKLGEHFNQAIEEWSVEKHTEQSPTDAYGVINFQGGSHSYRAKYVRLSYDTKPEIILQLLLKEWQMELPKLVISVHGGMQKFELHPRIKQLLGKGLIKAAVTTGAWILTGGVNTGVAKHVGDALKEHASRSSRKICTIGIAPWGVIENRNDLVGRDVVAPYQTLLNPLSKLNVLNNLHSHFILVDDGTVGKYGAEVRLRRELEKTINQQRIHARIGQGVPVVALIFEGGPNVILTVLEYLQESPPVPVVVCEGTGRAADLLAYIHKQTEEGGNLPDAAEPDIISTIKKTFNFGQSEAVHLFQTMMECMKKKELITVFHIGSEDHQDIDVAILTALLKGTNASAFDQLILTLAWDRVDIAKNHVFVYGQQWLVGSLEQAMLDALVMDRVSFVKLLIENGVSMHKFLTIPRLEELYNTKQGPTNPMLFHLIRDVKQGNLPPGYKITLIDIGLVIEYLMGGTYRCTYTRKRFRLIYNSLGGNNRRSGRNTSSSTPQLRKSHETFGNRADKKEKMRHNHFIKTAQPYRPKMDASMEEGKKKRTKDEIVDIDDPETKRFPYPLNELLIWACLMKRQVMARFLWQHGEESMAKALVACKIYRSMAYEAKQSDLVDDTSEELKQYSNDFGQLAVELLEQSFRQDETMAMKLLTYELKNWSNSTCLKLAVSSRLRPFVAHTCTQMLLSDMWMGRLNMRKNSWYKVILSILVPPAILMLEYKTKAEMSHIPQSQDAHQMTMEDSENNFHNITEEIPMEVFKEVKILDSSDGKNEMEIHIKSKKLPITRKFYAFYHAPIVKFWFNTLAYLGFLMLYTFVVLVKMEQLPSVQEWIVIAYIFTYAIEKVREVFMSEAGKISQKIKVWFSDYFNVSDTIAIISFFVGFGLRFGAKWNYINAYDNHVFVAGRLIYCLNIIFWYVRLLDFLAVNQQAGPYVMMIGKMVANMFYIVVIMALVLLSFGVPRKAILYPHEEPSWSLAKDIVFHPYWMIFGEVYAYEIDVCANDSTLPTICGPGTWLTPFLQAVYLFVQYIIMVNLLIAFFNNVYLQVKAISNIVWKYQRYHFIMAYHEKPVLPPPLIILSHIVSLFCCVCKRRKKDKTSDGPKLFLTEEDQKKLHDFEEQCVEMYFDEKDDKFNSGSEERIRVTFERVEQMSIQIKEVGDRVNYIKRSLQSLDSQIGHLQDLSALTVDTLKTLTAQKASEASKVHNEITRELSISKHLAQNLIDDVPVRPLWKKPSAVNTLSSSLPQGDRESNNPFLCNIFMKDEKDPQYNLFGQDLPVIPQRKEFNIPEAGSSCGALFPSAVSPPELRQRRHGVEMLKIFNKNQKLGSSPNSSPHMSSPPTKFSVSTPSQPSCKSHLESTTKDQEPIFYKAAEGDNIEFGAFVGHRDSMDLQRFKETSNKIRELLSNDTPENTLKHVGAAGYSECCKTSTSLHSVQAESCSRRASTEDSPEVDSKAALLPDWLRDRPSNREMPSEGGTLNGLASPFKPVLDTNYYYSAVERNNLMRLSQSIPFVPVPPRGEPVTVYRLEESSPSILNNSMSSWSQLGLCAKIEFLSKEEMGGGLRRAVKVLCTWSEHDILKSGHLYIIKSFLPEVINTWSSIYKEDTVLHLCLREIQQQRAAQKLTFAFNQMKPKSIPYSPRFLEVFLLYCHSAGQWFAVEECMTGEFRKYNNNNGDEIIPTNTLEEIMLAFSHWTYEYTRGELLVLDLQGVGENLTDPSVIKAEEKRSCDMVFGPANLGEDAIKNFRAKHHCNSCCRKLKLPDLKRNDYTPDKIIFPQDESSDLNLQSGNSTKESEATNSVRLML

MDA-MB-231 [2] = experiment: Inhibition of cell proliferation of human MDA-MB-231 cells at 10 uM incubated for 48 to 96 hrs; assay type: functional
[3] = Cytotoxic activity against mouse primary cortical neurons assessed as reduction in cell viability at 1 to 7.5 uM incubated for 48 to 72 hrs by MTT assay; assay type: cell-based; conditions: cerebral cortex neuron
RXF 393 = experiment: Antitumor activity against human RXF393 cells implanted in mouse assessed as inhibition of tumor growth at 20 mg/kg, iv qd; assay type: functional, organism-based
HeLa [4] = experiment: Inhibition of cell proliferation of human HeLa cells at 10 uM incubated for 48 to 96 hrs; assay type: functional
Y79 [5] = experiment: Inhibition of cell proliferation of human Y79 cells at 10 uM incubated for 48 to 96 hrs; assay type: functional
[6] = target: Transient receptor potential cation channel subfamily M member 7 (Mus musculus) (UniProt Q923J1); experiment: Inhibition of TRPM7 in mouse primary neuronal cells exposed to oxygen glucose deprivation condition for 1 to 3 hrs assessed as reduction in TRPM7-mediated anoxic cell death dosed before oxygen glucose deprivation condition by propidium iodide uptake assay; conditions: Primary neuron
[7] = target: Transient receptor potential cation channel subfamily M member 7 (Mus musculus) (UniProt Q923J1); experiment: Inhibition of Tet-induced Flag-tagged mouse TRPM7 expressed in HEK293 cells assessed as reduction in channel currents at 2 mM using compound applied intracellularly by whole cell patch clamp assay; assay type: cell-based
A-375 = experiment: Inhibition of cell proliferation of human A375 cells at 10 uM incubated for 48 to 96 hrs; assay type: functional
[8] = Inhibition of cell proliferation of human […] cells at 10 uM incubated for 48 to 96 hrs; assay type: functional; conditions: RXF 393
[9] = Inhibition of cell proliferation of human DMS53 cells at 10 uM incubated for 48 to 96 hrs; assay type: functional; conditions: DMS-53
Y79 [10] = experiment: Inhibition of cell proliferation of human Y79 cells at 1 uM to 7.5 uM by MTT assay; assay type: functional, cell-based
[11] = target: Transient receptor potential cation channel subfamily M member 7 (Mus musculus) (UniProt Q923J1); experiment: Inhibition of TRPM7 in mouse mouse primary cortical neurons exposed to 2 hrs oxygen glucose deprivation condition assessed as reduction in TRPM7-mediated anoxic cell death measured after 20 hrs by propidium iodide uptake assay; assay type: cell-based; conditions: Cerebral cortex neuron
WERI [12] = experiment: Inhibition of cell proliferation of human WERI cells at 0.25 uM to 10 uM by MTT assay; assay type: functional, cell-based
[13] = target: Transient receptor potential cation channel subfamily M member 7 (Mus musculus) (UniProt Q923J1); experiment: Inhibition of TRPM7 in mouse mouse primary cortical neurons exposed to 2 hrs oxygen glucose deprivation condition assessed as reduction in TRPM7-mediated anoxic cell death at 0.625 to 5 uM pre-incubated for 24 hrs before OGD measured after 20 hrs by propidium iodide uptake assay; assay type: cell-based; conditions: Cerebral cortex neuron
[14] = Inhibition of cell proliferation of mouse B16F10 cells at 10 uM incubated for 48 to 96 hrs; assay type: functional; conditions: B16-F10
[15] = Inhibition of cell proliferation of mouse B16-F1 cells at 10 uM incubated for 48 to 96 hrs; assay type: functional
B16-F1 = experiment: Inhibition of cell proliferation of mouse B16-F1 cells at 1.25 to 10 uM incubated for 72 hrs by SRB assay; assay type: functional, cell-based
B16-F10 [16] = experiment: Inhibition of cell proliferation of mouse B16F10 cells at 1.25 to 10 uM incubated for 72 hrs by SRB assay; assay type: functional, cell-based
[17] = Inhibition of cell proliferation of human HCT116 cells at 10 uM incubated for 48 to 96 hrs; assay type: functional; conditions: HCT-116
[18] = Inhibition of cell proliferation of mouse NIH/3T3 cells at 1.25 to 10 uM incubated for 72 hrs by propidium iodide staining assay; assay type: cell-based; conditions: nih3t3, 72 h
NCI-H292 = experiment: Inhibition of cell proliferation of human NCI-H292 cells at 10 uM incubated for 48 to 96 hrs; assay type: functional
[19] = Toxicity in mouse assessed as maximum tolerated dose; assay type: organism-based; conditions: in vivo
SW13 [20] = experiment: Inhibition of cell proliferation of human SW13 cells at 1.25 to 10 uM incubated for 48 hrs by BrdU incorporation assay; assay type: functional, cell-based
MCF7 = experiment: Inhibition of cell proliferation of human MCF7 cells at 10 uM incubated for 48 to 96 hrs; assay type: functional
B16-F10 [21] = experiment: Antitumor activity against mouse B16F10 cells implanted in mouse assessed as inhibition of tumor growth at 20 mg/kg, iv qd; assay type: functional, organism-based
SW13 [22] = experiment: Inhibition of cell proliferation of human SW13 cells at 10 uM incubated for 48 to 96 hrs; assay type: functional
[23] = target: Transient receptor potential cation channel subfamily M member 7 (Rattus norvegicus) (UniProt Q925B3); experiment: Inhibition of TRPM7 in rat H9C2 cells exposed to oxygen glucose deprivation condition for 1 to 6 hrs assessed as reduction in TRPM7-mediated anoxic cell death in presence of 1 uM nifedipine by propidium iodide uptake assay; assay type: cell-based
Sequence of Transient receptor potential cation channel subfamily M member 7 (Rattus norvegicus) (Q925B3 whole entry): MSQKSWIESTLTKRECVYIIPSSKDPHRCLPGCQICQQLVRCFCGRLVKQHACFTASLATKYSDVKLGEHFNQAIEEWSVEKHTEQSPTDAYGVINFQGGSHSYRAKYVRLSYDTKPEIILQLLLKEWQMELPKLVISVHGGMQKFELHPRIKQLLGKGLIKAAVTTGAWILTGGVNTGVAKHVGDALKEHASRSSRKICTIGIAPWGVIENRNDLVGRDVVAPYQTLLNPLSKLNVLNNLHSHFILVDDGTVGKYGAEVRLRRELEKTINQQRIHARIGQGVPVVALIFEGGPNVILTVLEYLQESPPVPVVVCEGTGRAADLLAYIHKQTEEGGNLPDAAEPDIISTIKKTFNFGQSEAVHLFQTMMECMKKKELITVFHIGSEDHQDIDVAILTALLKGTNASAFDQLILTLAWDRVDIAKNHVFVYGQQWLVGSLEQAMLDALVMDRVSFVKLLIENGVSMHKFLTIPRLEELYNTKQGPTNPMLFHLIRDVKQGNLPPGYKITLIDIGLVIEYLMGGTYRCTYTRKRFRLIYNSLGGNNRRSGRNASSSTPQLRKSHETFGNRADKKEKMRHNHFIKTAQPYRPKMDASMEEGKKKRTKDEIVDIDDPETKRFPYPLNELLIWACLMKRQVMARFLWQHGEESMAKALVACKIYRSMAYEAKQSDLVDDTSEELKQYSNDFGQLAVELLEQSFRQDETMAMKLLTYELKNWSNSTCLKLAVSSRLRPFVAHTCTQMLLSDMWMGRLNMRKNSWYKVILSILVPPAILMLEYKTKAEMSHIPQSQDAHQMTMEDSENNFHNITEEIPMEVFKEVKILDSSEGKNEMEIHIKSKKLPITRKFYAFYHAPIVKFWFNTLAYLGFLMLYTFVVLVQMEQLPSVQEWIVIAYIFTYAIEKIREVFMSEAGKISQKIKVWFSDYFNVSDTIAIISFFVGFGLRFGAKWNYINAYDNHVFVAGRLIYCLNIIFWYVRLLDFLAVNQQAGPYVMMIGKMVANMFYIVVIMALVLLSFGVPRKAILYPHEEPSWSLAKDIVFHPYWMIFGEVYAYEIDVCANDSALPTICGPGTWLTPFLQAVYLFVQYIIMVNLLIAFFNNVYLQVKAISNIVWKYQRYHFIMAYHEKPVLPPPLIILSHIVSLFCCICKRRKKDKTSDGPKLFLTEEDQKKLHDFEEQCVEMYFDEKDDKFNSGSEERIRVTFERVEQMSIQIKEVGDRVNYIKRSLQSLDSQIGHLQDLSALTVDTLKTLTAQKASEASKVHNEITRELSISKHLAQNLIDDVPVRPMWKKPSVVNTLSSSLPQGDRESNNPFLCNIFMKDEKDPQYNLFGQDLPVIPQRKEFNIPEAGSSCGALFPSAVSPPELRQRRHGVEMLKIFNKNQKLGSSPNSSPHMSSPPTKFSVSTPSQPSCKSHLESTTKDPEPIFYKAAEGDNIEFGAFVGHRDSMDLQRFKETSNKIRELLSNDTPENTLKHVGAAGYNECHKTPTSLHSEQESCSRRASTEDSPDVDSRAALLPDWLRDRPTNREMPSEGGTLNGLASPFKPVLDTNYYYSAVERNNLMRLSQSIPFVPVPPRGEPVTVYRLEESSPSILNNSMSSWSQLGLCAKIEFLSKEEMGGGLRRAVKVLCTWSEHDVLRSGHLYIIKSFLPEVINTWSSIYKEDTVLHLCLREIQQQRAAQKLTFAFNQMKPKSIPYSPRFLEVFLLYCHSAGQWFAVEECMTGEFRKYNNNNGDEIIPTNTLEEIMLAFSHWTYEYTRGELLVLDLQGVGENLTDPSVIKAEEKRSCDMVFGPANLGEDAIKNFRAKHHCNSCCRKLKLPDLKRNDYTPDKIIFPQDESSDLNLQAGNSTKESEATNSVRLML

[24] = target: Transient receptor potential cation channel subfamily M member 7 (Rattus norvegicus) (UniProt Q925B3); experiment: Inhibition of TRPM7 in rat H9C2 cells assessed as reduction in channel currents at 0.3 to 30 uM by whole cell patch clamp assay; assay type: cell-based
[25] = target: Transient receptor potential cation channel subfamily M member 7 (Mus musculus) (UniProt Q923J1); experiment: Inhibition of Tet-induced Flag-tagged mouse TRPM7 expressed in HEK293 cells assessed as reduction in channel currents at 2 mM using compound applied extracellularly by whole cell patch clamp assay; assay type: cell-based
MDA-MB-231 [26] = experiment: Inhibition of cell proliferation of human MDA-MB-231 cells at 1.25 to 10 uM incubated for 72 hrs by SRB assay; assay type: functional, cell-based
Y79 [27] = experiment: Reduction in cell viability in human Y79 cells on rat retinal explants at 5 uM; assay type: functional, cell-based
[28] = Inhibition of cell proliferation of human WERI cells at 10 uM incubated for 48 to 96 hrs; assay type: functional
U2OS = experiment: Inhibition of cell proliferation of human U2OS cells at 10 uM incubated for 48 to 96 hrs; assay type: functional
SW13 [29] = experiment: Inhibition of cell proliferation of human SW13 cells at 1.25 to 10 uM incubated for 72 hrs by SRB assay; assay type: functional, cell-based
Y79 [30] = experiment: Inhibition of cell migration of human Y79 cells assessed as reduction in cell ability to migrate away from retina in cultured explants at 5 uM; assay type: functional, cell-based
WERI [31] = experiment: Inhibition of cell migration of human WERI cells assessed as reduction in cell ability to migrate away from retina in cultured explants at 1 uM; assay type: functional, cell-based
[32] = target: Transient receptor potential cation channel subfamily M member 7 (Mus musculus) (UniProt Q923J1); experiment: Inhibition of TRPM7 in mouse primary neuronal cells exposed to oxygen glucose deprivation condition for 1 to 3 hrs assessed as reduction in TRPM7-mediated anoxic cell death dosed after oxygen glucose deprivation condition by propidium iodide uptake assay; conditions: Primary neuron
[33] = Inhibition of cell proliferation of human DMS456 cells at 10 uM incubated for 48 to 96 hrs; assay type: functional
[34] = target: Transient receptor potential cation channel subfamily M member 7 (Mus musculus) (UniProt Q923J1); experiment: Inhibition of Tet-induced Flag-tagged mouse TRPM7 expressed in HEK293 cells assessed as reduction in channel currents at 0.3 to 30 uM by whole cell patch clamp assay; assay type: cell-based
HeLa [35] = experiment: Inhibition of cell proliferation of human HeLa cells at 1.25 to 10 uM incubated for 48 hrs by BrdU incorporation assay; assay type: functional, cell-based

Compound: COc1cc2c(cc1OC)C(c1sc3ccccc3c1Cl)=NCC2
- inhibition [1]: Active
- inhibition at 10 µM (MDA-MB-231 [2]): > 20%
- Activity [3]: Non-toxic
- TGI (RXF 393): Active
- inhibition at 10 µM (HeLa [4]): > 20%
- inhibition at 10 µM (Y79 [5]): > 20%
- inhibition [6]: Active
- inhibition [7]: inactive
- inhibition at 10 µM (A-375): > 20%
- inhibition at 10 µM [8]: > 20%
- inhibition at 10 µM [9]: > 20%
- inhibition (Y79 [10]): Active
- inhibition [11]: Active
- inhibition (WERI [12]): Active
- inhibition [13]: Active
- inhibition at 10 µM [14]: > 20%
- inhibition at 10 µM [15]: > 20%
- inhibition (B16-F1): Active
- inhibition (B16-F10 [16]): Active
- inhibition at 10 µM [17]: > 20%
- Activity [18]: Non-toxic
- inhibition at 10 µM (NCI-H292): > 20%
- MTD [19]: < 20 mg/kg
- inhibition (SW13 [20]): Active
- inhibition at 10 µM (MCF7): > 20%
- TGI (B16-F10 [21]): Active
- inhibition at 10 µM (SW13 [22]): > 20%
- inhibition [23]: Active
- inhibition [24]: Active
- inhibition [25]: Active
- inhibition (MDA-MB-231 [26]): Active
- inhibition (Y79 [27]): Active
- inhibition at 10 µM [28]: > 20%
- inhibition at 10 µM (U2OS): > 20%
- inhibition (SW13 [29]): Active
- inhibition (Y79 [30]): Active
- inhibition (WERI [31]): Active
- inhibition [32]: Active
- inhibition at 10 µM [33]: > 20%
- inhibition [34]: Active
- inhibition (HeLa [35]): Active
